Consider three compounds from patent publication US12643867B2, “Compositions and uses thereof” (University of Virginia Patent Foundation, priority 2017, dated 2026).

The subject of experiment [1] is H82 cells. In words: Cell Counts (Trypan Blue). The experiment is classed as cell-based. The following applies: 48 hrs; ritanserin 10 μM. How it is done:
(§1) Cell Counts. Tumor cells were plated in 60 mm plates at a density of 100.000 cells/mL (A549. H1650) or 200,000 cells/mL (H82) and a volume of 3.5 mL/plate. Cells were treated with inhibitors at the indicated concentrations (final DMSO concentration of 0.5%) for 48 hrs at 37° C. under 5% CO2. After incubation, adherent cells were washed and detached with trypsin and all cells were collected and concentrated by spinning at 400×g for 3 min followed by aspiration of media. Cells were resuspended in […] Trypan Blue and 10 μL of this solution counted via a hemocytometer. Dead cells were excluded from all counts. Data were normalized to DMSO-treated wells and significance values determined with one-way ANOVA.

For experiment [2], the system named is A549 cells. In words: Cell Counts (Trypan Blue). It is filed as cell-based. The following applies: 48 hrs; ritanserin 10 μM. The protocol:
as §1

Experiment [3] relates to H1650 cells. In words: Cell Counts (Trypan Blue). The experiment is classed as cell-based. The note with it: 48 hrs; ritanserin 10 μM. How it is done:
as §1

In experiment [4] the target is T1, DGKA (Diacylglycerol kinase alpha) (Rattus norvegicus, UniProt P51556).
T1 construct: expressed in transfected cells; host or cells: HEK293T (SILAC HEK293T for LC-MS)
T1 sequence (P51556 whole entry): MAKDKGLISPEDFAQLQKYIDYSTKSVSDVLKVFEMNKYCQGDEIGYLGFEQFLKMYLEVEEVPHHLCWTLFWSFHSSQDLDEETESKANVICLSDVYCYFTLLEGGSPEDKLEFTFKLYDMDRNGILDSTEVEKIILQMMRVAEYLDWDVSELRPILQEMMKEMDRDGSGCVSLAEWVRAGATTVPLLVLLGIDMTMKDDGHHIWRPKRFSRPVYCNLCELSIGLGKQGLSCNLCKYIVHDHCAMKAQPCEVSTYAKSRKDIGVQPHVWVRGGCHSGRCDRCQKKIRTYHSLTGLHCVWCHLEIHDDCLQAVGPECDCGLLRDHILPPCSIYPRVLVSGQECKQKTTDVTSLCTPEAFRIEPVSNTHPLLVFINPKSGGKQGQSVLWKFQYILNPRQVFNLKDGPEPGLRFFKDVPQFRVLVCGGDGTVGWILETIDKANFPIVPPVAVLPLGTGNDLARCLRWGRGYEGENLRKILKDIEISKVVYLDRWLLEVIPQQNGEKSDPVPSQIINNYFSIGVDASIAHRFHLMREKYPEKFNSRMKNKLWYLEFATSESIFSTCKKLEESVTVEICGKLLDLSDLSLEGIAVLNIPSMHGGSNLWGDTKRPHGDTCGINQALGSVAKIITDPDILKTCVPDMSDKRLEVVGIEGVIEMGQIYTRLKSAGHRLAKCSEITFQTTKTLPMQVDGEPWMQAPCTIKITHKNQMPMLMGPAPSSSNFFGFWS
In words: SILAC LC-MS ATP acyl phosphate probe competition, recombinant DGK-HEK293T lysates. It is filed as binding. The note with it: ATP 1 mM, Ketanserin, Ritanserin 100 μM, RF001 1 mM; for SILAC ratio, DGKA C1 probe-modified peptide: site C1 (K237); for SILAC ratio, DGKA DAGKa probe-modified peptide: site DAGKa (K539); for SILAC ratio, DGKA DAGKc probe-modified peptide: site DAGKc (K377). How it is done:
All other vectors were gifted to Dr. Kevin Lynch (University of Virginia, School of Medicine) by Dr. Kaoru Goto (Yamagata University, School of Medicine) and Dr. Fumio Sakane (Chiba University) and were kindly shared with us: pcDNA3-FLAG-DGKA (rat), pCMV-Tag2B-FLAG-DGKQ (human), pcDNA3-DGKE-3×Flag (human), and pCMV-SPORT6-HA-DGKZ (human). HEK293T cells were plated at a concentration of 400,000 cells in complete DMEM and grown to 50-60% confluency. A polyethyleneimine (PEI) stock solution was prepared (1 mg/mL, pH 7.4) and filter sterilized. Serum-free DMEM (600 μL) was mixed gently with 2.6 μg DNA and 20 μL of sterile PEI (1 mg/mL, pH 7.4) in a sterile microfuge tube. Mixtures were incubated for 30 min at 25° C. The mixture was then added drop-wise to each 10 cm^2 plate, rocked back and forth to mix, and placed back in the incubator. Cell pellets were harvested after two full days of growth, snap-frozen in liquid N2, and stored at −80° C. until use. Recombinant proteins were produced by transient transfection in SILAC HEK293T cells using the procedure described above, except that cells were plated at a concentration of 1×10^6 cells per 10 cm^2 plate and grown to ˜70% confluency prior to introducing transfection mixture.
Proteomes were diluted to 2 mg/ml in kinase buffer. The light and heavy proteomes (0.5 mg, 250 μL total reaction volume) were pre-treated with vehicle or compound, respectively (5 μL, DMSO (light) or 50× stock in DMSO (heavy)), mixed gently, and incubated at 25° C. for 30 min. […] After incubation, matched light and heavy proteomes were transferred and mixed in a 1:1 ratio in a two-dram vial containing 4:1:3 MeOH/CHCl3/H2O (2 mL MeOH, 500 AL CHCl3, 1.5 mL H2O) for extraction of proteins to remove excess probe, quickly vortexed, and centrifuged at 1,400×g for 3 min to pellet protein. Organic and aqueous layers were removed using a Pasteur pipette, and the protein pellet was transferred to a screw-top tube in 600 μL MeOH. A second extraction was performed by adding CHCl3 (150 μL) and H2O (600 μL) to each sample, vortexed, and centrifuged at 1,400×g for 3 min to pellet protein. Organic and aqueous layers were removed by pipetting. MeOH added to pellet (600 μL) and pellets were re-suspended by sonication (3×1 sec pulse, 20% amplitude) for a final extraction. Samples were then centrifuged at 17,000×g for 5 min to pellet protein and MeOH was removed by pipetting. […] To desalt the samples, each was transferred to a two-dram glass vial, and to the vial 4:1:2 MeOH/CHCl3/H2O (2 mL MeOH, 500 AL CHCl3, 1 mL H2O) was added. The vials were vortexed quickly, spun at 1.400×g for 3 min to pellet protein, and aqueous and organic layers were removed using a Pasteur pipette. The resulting protein pellet was transferred to a screw-top tube in 600 μL MeOH, and then CHCl3 (150 μL) and HO (600 μL) were added to extract protein a second time. The samples were vortexed quickly, centrifuged at 1,400×g to pellet protein, and the aqueous and organic layers were removed by pipetting. Resulting protein pellet was suspended in MeOH (600 μL) via sonication (3×1 sec pulse, 20% amplitude), centrifuged at 17,000×g for 5 min to pellet protein, and MeOH removed by pipetting. Protein pellets were then re-suspended in 25 mM ammonium bicarbonate (500 μL) and digested with 7.5 μg Trypsin/Lys-C(Promega, 15 μL, 0.5 μg/μL) for 3 h at 37° C. Avidin-agarose beads (Thermo Scientific Pierce, 100 AL aliquot per sample) were washed three times by adding 10 mL DPBS, centrifuged at 1,400×g for 1 min, and decanting. This wash step was repeated for a total of 3 times. Digested protein samples were mixed with washed avidin beads (100 μL) and brought to a volume of 5.5 mL with DPBS in a 15 mL conical and rotated for 1 h to enrich samples for the covalent desthiobiotin modification. The beads were washed with 25 mM ammonium bicarbonate (3× with 10 mL, centrifuge at 1,400×g for 3 min, decant) and then H2O (3× with 10 mL, centrifuge at 1,400×g for 3 min, decant).

Regarding `O=C(c1ccc(F)cc1)C1CCN(CCn2c(=O)[nH]c3ccccc3c2=O)CC1` [Ketanserin], the “cell killing (live cell counts)” value in experiment [1] is recorded as “not ketanserin”. Also, the “cell killing (live cell counts)” value in experiment [2] is “not ketanserin”. Further, the “cell killing (live cell counts)” value in experiment [3] is listed as “not ketanserin”. Besides, in experiment [4], the “SILAC ratio, DGKA C1 probe-modified peptide” value came out at 1.4; the “SILAC ratio, DGKA DAGKa probe-modified peptide” value stood at 1.3; the “SILAC ratio, DGKA DAGKc probe-modified peptide” value is 1.2.

For `Fc1ccc(C(=C2CCNCC2)c2ccc(F)cc2)cc1` [RF001, 4-(Bis(4-fluorophenyl)methylene) piperidine], in experiment [4], the “SILAC ratio, DGKA C1 probe-modified peptide” value worked out at 12.6; the “SILAC ratio, DGKA DAGKa probe-modified peptide” value is given as 9.1; the “SILAC ratio, DGKA DAGKc probe-modified peptide” value is listed as 1.7.

For the compound `Cc1nc2sccn2c(=O)c1CCN1CCC(=C(c2ccc(F)cc2)c2ccc(F)cc2)CC1` [Ritanserin], the “cell killing (live cell counts)” value in experiment [1] was around 70%. Besides, in experiment [2], the “cell killing (live cell counts)” value was around 70%. Also, in experiment [3], the “cell killing (live cell counts)” value is around 70%. Also, in experiment [4], the “SILAC ratio, DGKA C1 probe-modified peptide” value is given as 7.0; the “SILAC ratio, DGKA DAGKa probe-modified peptide” value turned out to be 7.0; the “SILAC ratio, DGKA DAGKc probe-modified peptide” value was 2.0.
